Species on record: Rattus norvegicus
Assay: DrugMatrix - Regimen: Daily Repeat
Format: toxicity, organism-based, Sprague-Dawley
Design: regimen Daily Repeat, gender Male, age 6-8 weeks
Settings: in vivo, po, 15 mg/kg, route oral GAVAGE, dose level Low, vehicle .5 % CMC; for ABSOLUTE BASOPHIL / ABSOLUTE EOSINOPHIL / ABSOLUTE LYMPHOCYTE / ABSOLUTE MONOCYTE / ABSOLUTE SEGMENTED NEUTROPHIL / BASOPHIL / EOSINOPHIL / ERYTHROCYTE COUNT / HEMATOCRIT / HEMOGLOBIN / LEUKOCYTE COUNT / LYMPHOCYTE / MEAN CORPUSCULAR HEMOGLOBIN / MEAN CORPUSCULAR HEMOGLOBIN CONCENTRATION / MEAN CORPUSCULAR VOLUME / MONOCYTE / NEUTROPHIL / NUCLEATED RED BLOOD CELLS / PLATELET COUNT: tissue Blood; for ALANINE AMINOTRANSFERASE / ALBUMIN / ALKALINE PHOSPHATASE / ASPARTATE AMINOTRANSFERASE / BLOOD UREA NITROGEN / CARBON DIOXIDE / CHLORIDE / CHOLESTEROL / CREATINE PHOSPHOKINASE / CREATININE / GLUCOSE / LACTATE DEHYDROGENASE / LIPASE / PHOSPHORUS / POTASSIUM / SODIUM / TOTAL BILIRUBIN / TOTAL PROTEIN / URIC ACID: tissue Plasma

In the case of `C[C@]12CCC(=O)C=C1CC[C@@H]1[C@@H]2CC[C@@]2(C)[C@H]1CC[C@]2(C)O` [METHYLTESTOSTERONE], the “ABSOLUTE BASOPHIL” value (72 h, time 3 day) is reported as 0 CELLS/uL, the “ABSOLUTE EOSINOPHIL” value (72 h, time 3 day) is reported as 240 CELLS/uL and the “ABSOLUTE LYMPHOCYTE” value (72 h, time 3 day) is reported as 14115 CELLS/uL. For the same compound, the “ABSOLUTE MONOCYTE” value (72 h, time 3 day) was 60.67 CELLS/uL, the “ABSOLUTE SEGMENTED NEUTROPHIL” value (72 h, time 3 day) was 1817.67 CELLS/uL and the BASOPHIL (72 h, time 3 day) was 0%. For the same compound, the EOSINOPHIL (72 h, time 3 day) was 1.33%, the “ERYTHROCYTE COUNT” value (72 h, time 3 day) was 5.48 x10E6/uL and the HEMATOCRIT (72 h, time 3 day) was 33.23%. For the same compound, the HEMOGLOBIN (72 h, time 3 day) was 12.9 G/DL, the “LEUKOCYTE COUNT” value (72 h, time 3 day) was 16.23 x10E3/uL and the LYMPHOCYTE (72 h, time 3 day) was 87%. For the same compound, the “MEAN CORPUSCULAR HEMOGLOBIN” value (72 h, time 3 day) was 23.53 pg, the “MEAN CORPUSCULAR HEMOGLOBIN CONCENTRATION” value (72 h, time 3 day) was 38.8 G/DL and the “MEAN CORPUSCULAR VOLUME” value (72 h, time 3 day) was 60.73 fL. The MONOCYTE (72 h, time 3 day) was 0.33%, the NEUTROPHIL (72 h, time 3 day) was 11.33% and the “NUCLEATED RED BLOOD CELLS” value (72 h, time 3 day) was 0 /100WBC. For the same compound, the “PLATELET COUNT” value (72 h, time 3 day) was 1314.67 x10E3/uL, the “ALANINE AMINOTRANSFERASE” value (72 h, time 3 day) was 47.33 u/L and the ALBUMIN (72 h, time 3 day) was 4.2 G/DL. The “ALKALINE PHOSPHATASE” value (72 h, time 3 day) was 275.33 u/L, the “ASPARTATE AMINOTRANSFERASE” value (72 h, time 3 day) was 99.33 u/L and the “BLOOD UREA NITROGEN” value (72 h, time 3 day) was 18.67 mg/dL. For the same compound, the “CARBON DIOXIDE” value (72 h, time 3 day) was 27 mmol/L, the CHLORIDE (72 h, time 3 day) was 103 MEQ/L and the CHOLESTEROL (72 h, time 3 day) was 75 mg/dL. For the same compound, the “CREATINE PHOSPHOKINASE” value (72 h, time 3 day) was 593 u/L, the CREATININE (72 h, time 3 day) was 0.23 mg/dL and the GLUCOSE (72 h, time 3 day) was 141 mg/dL. The “LACTATE DEHYDROGENASE” value (72 h, time 3 day) was 578.33 u/L, the LIPASE (72 h, time 3 day) was 9 u/L and the PHOSPHORUS (72 h, time 3 day) was 11.9 mg/dL. The POTASSIUM (72 h, time 3 day) was 5.93 MEQ/L, the SODIUM (72 h, time 3 day) was 145.33 MEQ/L and the “TOTAL BILIRUBIN” value (72 h, time 3 day) was 0.2 mg/dL. The “TOTAL PROTEIN” value (72 h, time 3 day) was 5.8 G/DL, the “URIC ACID” value (72 h, time 3 day) was 1.47 mg/dL and the “ABSOLUTE BASOPHIL” value (120 h, time 5 day) was 0 CELLS/uL. The “ABSOLUTE EOSINOPHIL” value (120 h, time 5 day) was 157.67 CELLS/uL, the “ABSOLUTE LYMPHOCYTE” value (120 h, time 5 day) was 14288.33 CELLS/uL and the “ABSOLUTE MONOCYTE” value (120 h, time 5 day) was 45 CELLS/uL. The “ABSOLUTE SEGMENTED NEUTROPHIL” value (120 h, time 5 day) was 1275.67 CELLS/uL, the BASOPHIL (120 h, time 5 day) was 0% and the EOSINOPHIL (120 h, time 5 day) was 1%. The “ERYTHROCYTE COUNT” value (120 h, time 5 day) was 5.89 x10E6/uL, the HEMATOCRIT (120 h, time 5 day) was 35.43% and the HEMOGLOBIN (120 h, time 5 day) was 13.6 G/DL. The “LEUKOCYTE COUNT” value (120 h, time 5 day) was 15.77 x10E3/uL, the LYMPHOCYTE (120 h, time 5 day) was 90.33% and the “MEAN CORPUSCULAR HEMOGLOBIN” value (120 h, time 5 day) was 23.1 pg. The “MEAN CORPUSCULAR HEMOGLOBIN CONCENTRATION” value (120 h, time 5 day) was 38.4 G/DL, the “MEAN CORPUSCULAR VOLUME” value (120 h, time 5 day) was 60.17 fL and the MONOCYTE (120 h, time 5 day) was 0.33%. The NEUTROPHIL (120 h, time 5 day) was 8.33%, the “NUCLEATED RED BLOOD CELLS” value (120 h, time 5 day) was 0 /100WBC and the “PLATELET COUNT” value (120 h, time 5 day) was 1359 x10E3/uL. For the same compound, the “ALANINE AMINOTRANSFERASE” value (120 h, time 5 day) was 52.33 u/L, the ALBUMIN (120 h, time 5 day) was 4.13 G/DL and the “ALKALINE PHOSPHATASE” value (120 h, time 5 day) was 322.67 u/L. The “ASPARTATE AMINOTRANSFERASE” value (120 h, time 5 day) was 91 u/L, the “BLOOD UREA NITROGEN” value (120 h, time 5 day) was 13.67 mg/dL and the “CARBON DIOXIDE” value (120 h, time 5 day) was 26.67 mmol/L. For the same compound, the CHLORIDE (120 h, time 5 day) was 103 MEQ/L, the CHOLESTEROL (120 h, time 5 day) was 77.33 mg/dL and the “CREATINE PHOSPHOKINASE” value (120 h, time 5 day) was 245 u/L. The CREATININE (120 h, time 5 day) was 0.17 mg/dL, the GLUCOSE (120 h, time 5 day) was 149.33 mg/dL and the “LACTATE DEHYDROGENASE” value (120 h, time 5 day) was 232.33 u/L. The LIPASE (120 h, time 5 day) was 9.33 u/L, the PHOSPHORUS (120 h, time 5 day) was 12.6 mg/dL and the POTASSIUM (120 h, time 5 day) was 6.3 MEQ/L. The SODIUM (120 h, time 5 day) was 143.83 MEQ/L, the “TOTAL BILIRUBIN” value (120 h, time 5 day) was 0.17 mg/dL and the “TOTAL PROTEIN” value (120 h, time 5 day) was 5.87 G/DL. The “URIC ACID” value (120 h, time 5 day) was 1.73 mg/dL.
